A short description of experiment [1]: FA direct binding of antibiotics/compounds to NBD-lipid II probe. Conditions: for Effect on FA signal of the NBD-lipid II probe (direct binding, no protein): increasing compound concentrations, probe 0.33 µM; for Kd: antibiotic binding to probe 0.33 µM, 10 mM Tris-HCl pH 7.5, 3% DMSO. As to the method: Serial dilutions of each antibiotic in 10 mM Tris-HCl pH 7.5 and 3% DMSO were prepared in 384-well plates (30 µL) in triplicates. […] Blank samples without antibiotic were also prepared for background fluorescence estimation. […] The data were analysed as described above with [R] and [RL] are, respectively, the equilibrium concentration of the compound and the compound-probe complex.

For experiment [2] the following is noted: read-out: Kd (Lipid II), values from the literature, cited from earlier work.
The conditions of experiment [3]: ref Lo, M. C. et al. J. Am. Chem. Soc. 122 (2000); read-out: IC50 (Lipid II), values from the literature; cited from earlier work.
The target in experiment [4] is T1, MurJ (Escherichia coli, UniProt P0AF16). Briefly: FA direct binding of NBD-lipid II probe to MurJ. Details: made in house; species or system E. coli. Conditions: probe 0.33 µM. As to the method:
(§1) Fluorescent anisotropy (FA) experiments were performed in a black 384-well plate (Greiner Bio-One Polystyrene Non-Binding Flat Bottom) in triplicates. Serial dilutions of the protein (PBP1bγ, FtsW, FtsW-PBP3 or MurJ) in the appropriate buffer and the NBD-lipid II probe was added at a 0.33 µM final concentration. FtsN was used as a negative control under the same conditions. […] Fluorescence polarization (FP) and anisotropy (A) values were calculated using the equations FP = (I|| − G·I┴)/I||+ G·I┴) and A = 2· FP/3-FP respectively, where I|| is the fluorescence intensity of emitted light parallel to excitation, I┴ is the fluorescence intensity of emitted light perpendicular to excitation, and G is the correction factor that correct for instrument bias. The G factor is experimentally determined using the probe alone. […] For Kd determination, the fluorescence anisotropy data were analysed by nonlinear curve fitting to the Eq. (1) using GraphPad Prism 6.0 software[27].1 (A−Amin)/(Amax−Amin)=[RL]=(Kd+[R]+[L])−[(Kd+R]+[L])^2−4[R][L]]^1/2 Where A, Amin, Amax are the observed, the minimum and the maximum anisotropy, respectively, and [R], [L] and [RL] are the equilibrium concentration of the protein, the probe; and the protein-probe complex, respectively; Kd is the dissociation constant between the protein and the probe.

Experiment [5] has as its target T2, PBP1b (Escherichia coli, UniProt P02919). In words: Fluorescence anisotropy (FA) direct binding of NBD-lipid II probe to PBP1b. Details: made in house; species or system E. coli. Conditions: probe 0.33 µM. As to the method:
as §1

The target of experiment [6] is T3, FtsW-PBP3 (Escherichia coli, UniProt P0ABG4). In words: FA direct binding of NBD-lipid II probe to FtsW-PBP3 complex. Further details: made in house; species or system E. coli. Conditions: probe 0.33 µM. As to the method:
as §1

Experiment [7] addresses T4, FtsW (Escherichia coli, UniProt P0ABG4). In words: FA direct binding of NBD-lipid II probe to FtsW. Details: made in house; species or system E. coli. Conditions: probe 0.33 µM. As to the method: as §1
The target of another experiment is T5, FtsN (Escherichia coli, UniProt P29131).
T5 construct: made in house
T5 sequence (P29131 whole entry): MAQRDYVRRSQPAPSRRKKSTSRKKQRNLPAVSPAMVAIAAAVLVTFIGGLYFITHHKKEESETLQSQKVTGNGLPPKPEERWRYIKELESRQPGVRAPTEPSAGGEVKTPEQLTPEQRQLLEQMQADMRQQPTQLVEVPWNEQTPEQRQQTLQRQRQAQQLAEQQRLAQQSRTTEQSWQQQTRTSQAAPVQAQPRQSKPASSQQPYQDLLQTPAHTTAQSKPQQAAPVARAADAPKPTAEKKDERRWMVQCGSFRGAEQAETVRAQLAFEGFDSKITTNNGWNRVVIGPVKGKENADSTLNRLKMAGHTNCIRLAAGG
In words: FA direct binding of NBD-lipid II probe to FtsN (negative control). Conditions: FtsN as negative control. As to the method:
as §1

Experiment [8] concerns the target T4, FtsW. In words: FA competition assay, FtsW:NBD-lipid II. Particulars: read-out: Ki values (unlabelled-Lipid II); displacement of probe (0.33 µM) from FtsW (~1 µM).
Procedure: (§2) Fixed concentrations of NBD-lipid II (0.33 µM) and proteins (~1 µM, 50–80% FA saturation[29]) were used. Serial dilutions of each antibiotic,unlabelled lipid II, or control compounds were prepared in 384-well plates in triplicates. Blank samples without proteins were also prepared for background fluorescence estimation. The mixtures (30 µL) were allowed to reach equilibrium for 20 min at room temperature with gentle shaking and the FA signals were recorded at 21 °C using an Infinite F Plex (Tecan, Männedorf, Switzerland) microplate reader equipped with polarization filters with excitation and emission wavelengths at 485 nm and 535 nm respectively. The data were plotted FA in millianisotropy units (mA) as a function of test compound concentration in µM. For the analysis of the completion data, fluorescence anisotropy values were fitted to the Eq. (3) using GraphPad Prism 6.0 software[30].3 [RL]=[R]/[1+Kd/[L](1+[C]/)Ki] Where [RL] is concentration of the receptor-probe complex; [R] is the concentration of the protein; [L] is the concentration of the probe; [C] is the concentration of test compound; Kd is the dissociation constant between the receptor and the probe (determined above); Ki is dissociation constant between the test compound and its target.
Experiment [9] deals with T2, PBP1b. Briefly: FA competition assay, PBP1b:NBD-lipid II. Particulars: read-out: Ki values (unlabelled-Lipid II); displacement of probe (0.33 µM) from PBP1b (~1 µM).
Procedure: as §2
Experiment [10] has as its target T3, FtsW-PBP3. In words: FA competition assay, FtsW-PBP3:NBD-lipid II. Particulars: read-out: Ki values (unlabelled-Lipid II); displacement of probe (0.33 µM) from FtsW-PBP3 (~1 µM).
Procedure: as §2
Experiment [11] has as its target MurJ. Further details: method as in Bolla, J. R. et al. Nat. Chem. 10 (2018). Particulars: native mass spectrometry, ref Bolla, J. R. et al. Nat. Chem. 10 (2018), read-out: Kd (Lipid II), values from the literature; cited from earlier work.
Experiment [12] has as its system PBP1b. Further details: method as in Terrak, M. et al. Mol. Microbiol. 34 (1999). Conditions: ref Terrak, M. et al. Mol. Microbiol. 34 (1999), read-out: Km (Lipid II), values from the literature, cited from earlier work.
Experiment [13] concerns the target T1, MurJ. In words: FA competition assay, MurJ:NBD-lipid II. Conditions: read-out: Ki values (unlabelled-Lipid II); displacement of probe (0.33 µM) from MurJ (~1 µM).
Procedure: as §2

The term Kd denotes the equilibrium constant for the complex coming apart. The IC50 is the point on the concentration scale where inhibition reaches its midpoint. Broadly, the Ki is the equilibrium dissociation constant of an inhibitor or competing ligand from its target. By Km is commonly meant the substrate concentration at which the rate is half of its maximum.

Entries after “also recorded” stand apart in the source; their conditions may differ. Read-outs that look alike come from different tables or passages of the source.

T3 sequence (P0ABG4 whole entry): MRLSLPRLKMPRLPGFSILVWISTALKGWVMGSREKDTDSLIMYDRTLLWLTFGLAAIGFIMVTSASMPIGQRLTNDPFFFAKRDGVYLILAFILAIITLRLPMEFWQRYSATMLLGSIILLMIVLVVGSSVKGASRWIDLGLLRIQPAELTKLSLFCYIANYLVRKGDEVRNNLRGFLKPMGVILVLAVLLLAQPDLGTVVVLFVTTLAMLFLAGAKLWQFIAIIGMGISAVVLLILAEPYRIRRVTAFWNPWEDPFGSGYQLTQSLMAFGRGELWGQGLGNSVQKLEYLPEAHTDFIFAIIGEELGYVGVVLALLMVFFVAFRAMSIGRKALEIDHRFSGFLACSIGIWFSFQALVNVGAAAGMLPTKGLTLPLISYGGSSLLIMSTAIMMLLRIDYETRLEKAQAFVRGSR
T3 sequence (P0AD68 1-577, further chain): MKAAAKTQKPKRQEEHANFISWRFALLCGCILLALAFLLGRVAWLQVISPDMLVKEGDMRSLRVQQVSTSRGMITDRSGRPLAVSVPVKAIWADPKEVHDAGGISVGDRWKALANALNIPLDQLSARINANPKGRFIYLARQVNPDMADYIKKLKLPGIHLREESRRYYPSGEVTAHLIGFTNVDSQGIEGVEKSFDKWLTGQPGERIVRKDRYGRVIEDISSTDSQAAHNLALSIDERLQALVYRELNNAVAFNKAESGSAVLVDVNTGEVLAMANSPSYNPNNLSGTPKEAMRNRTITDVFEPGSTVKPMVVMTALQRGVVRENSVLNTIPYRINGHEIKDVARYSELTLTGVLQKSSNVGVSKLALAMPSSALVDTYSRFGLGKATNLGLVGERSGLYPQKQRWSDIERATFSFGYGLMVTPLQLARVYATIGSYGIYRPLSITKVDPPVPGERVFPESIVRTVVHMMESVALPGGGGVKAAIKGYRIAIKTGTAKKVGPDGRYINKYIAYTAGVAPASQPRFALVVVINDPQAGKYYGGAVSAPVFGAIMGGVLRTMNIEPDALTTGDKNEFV
T4 sequence (P0ABG4 whole entry): as the sequence (P0ABG4 whole entry) above
T2 sequence (P02919 46-844): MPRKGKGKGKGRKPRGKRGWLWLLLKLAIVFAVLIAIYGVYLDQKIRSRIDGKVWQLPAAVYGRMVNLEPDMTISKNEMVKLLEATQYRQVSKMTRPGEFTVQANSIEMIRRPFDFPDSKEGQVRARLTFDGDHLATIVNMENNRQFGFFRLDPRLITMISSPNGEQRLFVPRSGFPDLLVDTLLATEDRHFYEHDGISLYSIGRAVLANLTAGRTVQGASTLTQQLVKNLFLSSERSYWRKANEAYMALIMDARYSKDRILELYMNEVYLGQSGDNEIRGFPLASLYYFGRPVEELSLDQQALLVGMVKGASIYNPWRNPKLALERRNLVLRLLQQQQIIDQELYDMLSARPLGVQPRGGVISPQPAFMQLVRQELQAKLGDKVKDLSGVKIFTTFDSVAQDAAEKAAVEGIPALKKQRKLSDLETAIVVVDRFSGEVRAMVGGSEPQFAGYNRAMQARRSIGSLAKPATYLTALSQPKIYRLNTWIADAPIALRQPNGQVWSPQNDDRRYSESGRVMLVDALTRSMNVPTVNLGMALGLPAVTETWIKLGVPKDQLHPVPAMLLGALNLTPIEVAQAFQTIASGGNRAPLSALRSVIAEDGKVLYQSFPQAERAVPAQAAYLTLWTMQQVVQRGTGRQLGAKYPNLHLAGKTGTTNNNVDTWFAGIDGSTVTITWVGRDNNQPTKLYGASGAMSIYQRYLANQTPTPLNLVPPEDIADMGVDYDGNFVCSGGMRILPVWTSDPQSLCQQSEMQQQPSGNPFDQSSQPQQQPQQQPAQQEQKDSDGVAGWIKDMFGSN
T1 sequence (P0AF16 whole entry): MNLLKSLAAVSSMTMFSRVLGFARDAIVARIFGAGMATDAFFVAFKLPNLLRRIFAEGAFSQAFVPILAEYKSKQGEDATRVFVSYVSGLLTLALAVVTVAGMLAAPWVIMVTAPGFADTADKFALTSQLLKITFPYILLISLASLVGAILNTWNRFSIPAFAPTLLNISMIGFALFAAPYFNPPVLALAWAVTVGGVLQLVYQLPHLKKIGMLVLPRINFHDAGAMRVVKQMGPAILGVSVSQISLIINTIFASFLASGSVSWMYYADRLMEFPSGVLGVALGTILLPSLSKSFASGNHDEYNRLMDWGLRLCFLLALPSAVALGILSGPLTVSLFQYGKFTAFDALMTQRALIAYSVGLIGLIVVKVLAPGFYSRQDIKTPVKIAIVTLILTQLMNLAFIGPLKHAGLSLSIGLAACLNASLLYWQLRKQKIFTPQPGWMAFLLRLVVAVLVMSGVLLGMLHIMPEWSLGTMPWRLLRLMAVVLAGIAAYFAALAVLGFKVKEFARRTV

As for `C=C(C/C=C(\C)CCC=C(C)C)CCC(C)(C)/C=C/CC/C(C)=C/CO[C@@H](COP(=O)(O)O[C@H]1O[C@H](C(N)=O)[C@@](C)(O)[C@H](OC(N)=O)[C@H]1O[C@@H]1O[C@H](CO[C@@H]2O[C@H](CO)[C@@H](O)[C@H](O)[C@H]2O)[C@@H](O[C@@H]2O[C@H](C)[C@@H](O[C@@H]3O[C@H](C(=O)NC4=C(O)CCC4=O)[C@H](O)[C@H](O)[C@H]3O)[C@H](O)[C@H]2NC(C)=O)[C@H](O)[C@H]1NC(C)=O)C(=O)O` [moenomycin A, Moenomycin A], the “Effect on FA signal of the NBD-lipid II probe (direct binding, no protein)” value (shortened to “Effect … (direct binding, no protein)”) in experiment [1] is listed as “did not significantly affect the FA signal”; in [1] (listed as Moenomycin) it was “no effect on the FA of the probe”.

As to `CN[C@H](CC(C)C)C(=O)N[C@H]1C(=O)N[C@@H](CC(N)=O)C(=O)N[C@H]2C(=O)N[C@H]3C(=O)N[C@H](C(=O)N[C@H](C(=O)O)c4cc(O)cc(O)c4-c4cc3ccc4O)[C@H](O)c3ccc(c(Cl)c3)Oc3cc2cc(c3O[C@@H]2O[C@H](CO)[C@@H](O)[C@H](O)[C@H]2O[C@H]2C[C@](C)(N)[C@H](O)[C@H](C)O2)Oc2ccc(cc2Cl)[C@H]1O` [Vancomycin, vancomycin], in experiment [1], the Kd was found to be 300 ± 100 nM and the “Effect … (direct binding, no protein)” value is recorded as “induced an increase of FA”. For the same compound, the Kd in experiment [2] (ref Münch, D. & Sahl, H.-G. Biochim. Biophys. Acta 1848 (2015)) is 500 nM.

In the case of ramoplanin, the IC50 in [3] was 300 nM. For the same compound, in [1], the affinity, expressed as Kd, was 230 ± 50 nM and the “Effect … (direct binding, no protein)” value is given as “induced an increase of FA”.

As to `N[C@@H](Cc1c[nH]c2ccccc12)C(=O)O` [tryptophan], the “Effect … (direct binding, no protein)” value in experiment [1] is “do not bind to the probe; also recorded: no significant effect on the FA of the probe”.

For the compound `CC(=O)N[C@H]1[C@H](O[C@H]2[C@H](O[C@H](C)C(=O)N[C@@H](C)C(=O)N[C@H](CCC(=O)N[C@@H](CCCCNc3ccc([N+](=O)[O-])c4nonc34)C(=O)N[C@H](C)C(=O)N[C@H](C)C(=O)O)C(=O)O)[C@@H](NC(C)=O)[C@@H](OP(=O)(O)OP(=O)(O)OC/C=C(/C)CC/C=C(/C)CC/C=C(/C)CC/C=C(/C)CC/C=C(/C)CC/C=C(/C)CC/C=C(/C)CC/C=C(/C)CC/C=C(\C)CC/C=C(\C)CCC=C(C)C)O[C@@H]2CO)O[C@H](CO)[C@@H](O)[C@@H]1O` [NBD-lipid II, Nitrobenzoxadiazole (NBD)-labelled Lipid II], the Kd was 1100 ± 300 nM on MurJ [4], 500 ± 200 nM at PBP1b [5], 300 ± 100 nM on FtsW-PBP3 [6] and 300 ± 100 nM on FtsW [7]. Also, the “Effect of FtsN on FA of the probe” value on FtsN is on record as “had no effect on the FA of the probe”.

For `CC(=O)N[C@H]1[C@H](O[C@H]2[C@H](O[C@H](C)C(=O)N[C@@H](C)C(=O)N[C@H](CCC(=O)N[C@@H](CCCCN)C(=O)N[C@H](C)C(=O)N[C@H](C)C(=O)O)C(=O)O)[C@@H](NC(C)=O)[C@@H](OP(=O)(O)OP(=O)(O)OC/C=C(/C)CC/C=C(/C)CC/C=C(/C)CC/C=C(/C)CC/C=C(/C)CC/C=C(/C)CC/C=C(/C)CC/C=C(/C)CC/C=C(\C)CC/C=C(\C)CCC=C(C)C)O[C@@H]2CO)O[C@H](CO)[C@@H](O)[C@@H]1O` [unlabelled lipid II, undecaprenyl-pyrophosphoryl-MurNAc(pentapeptide)-(beta-1,4)-GlcNAc], the inhibition constant (Ki) on FtsW [8] amounted to 5900 ± 1800 nM; on PBP1b [9], 1400 ± 200 nM; on FtsW-PBP3 [10] it was 6800 ± 1000 nM; at MurJ [13] it was 4600 ± 800 nM. In addition, on MurJ [11], the dissociation constant Kd is 2900 nM. The “Effect … (direct binding, no protein)” value is “no direct effect on the FA of the probe” in experiment [1] and “did not significantly affect the FA signal” in experiment [1] (listed as unlabeled lipid II). Further, the Michaelis constant (Km) in the experiment on PBP1b [12] (listed as Lipid II) was 1.8 ± 0.8 µM; in the experiment with PBP1b [12] (listed as lipid II), approximately 2 µM.

For the compound `CC1(C)S[C@@H]2[C@H](NC(=O)[C@H](N)c3ccccc3)C(=O)N2[C@H]1C(=O)O` [Ampicillin], the figures for the “Effect … (direct binding, no protein)” value in experiment [1] and in [1] (listed as ampicillin) were “no significant effect on the FA of the probe” and “do not bind to the probe”, respectively.

As for “nisin (ITSISLCTPGCKTGALMGCNMKTATCHCSIHVSK; not fully specified; Lantibiotic nisin-A; UniProt P13068 24-57, looked up)”, in experiment [1], the affinity, expressed as Kd, was 300 ± 100 nM and the “Effect … (direct binding, no protein)” value is listed as “induced an increase of FA”. The Kd in experiment [2] (ref 'T Hart, P. et al. Biochemistry 55 (2016)) was 14.6 to 50 nM.

Source of the values: paper PMC7156629, “Fluorescence anisotropy assays for high throughput screening of compounds binding to lipid II, PBP1b, FtsW and MurJ” (Scientific Reports, 2020).
